These are literature values, as cited in patent US9687454B2, “Sublingual and buccal film compositions” (Indivior UK Limited, priority 2009, dated 2017).

SMILES strings stand for the structures.

The conditions of this series: known value.

Turning to `C=CCN1CC[C@]23c4c5ccc(O)c4O[C@H]2C(=O)CC[C@@]3(O)[C@H]1C5` [naloxone], the pKa result is on record as “about 7.94”.
